Reference: paper PMC8781960, “Structural Basis of 2-Phenylamino-4-phenoxyquinoline Derivatives as Potent HIV-1 Non-Nucleoside Reverse Transcriptase Inhibitors” (Molecules, 2022)
Marks after values point to notes of the source that are not given here.

Experiments:
[1] = test system: H69AR (lung cancer, multidrug resistant); test: In vitro cytotoxicity (MTT); type: cell-based, human; details: human, 48 h, 50 µg/mL
[2] = test system: MRC-5 (normal embryonic lung cell); test: In vitro cytotoxicity (MTT), normal cell line; details: for IC50: Homo sapiens, MRC5, 48 h, read-out: IC50 MRC-5; for %C percentage cytotoxicity MRC-5: normal cell line, at 50 µg/mL, inactive (IC50 ≥ 50 µg/mL)
Description: (§1) Background control wells contained the same volume as the complete culture medium. […] Samples at various concentrations were added to the microplate and incubated for another 48 h. Cell viability was determined by 3(4,5-dimethylthiazol-2-yl)-2-5-diphenyl tetrazolium bromide (MTT) assay (Sig-ma-Aldrich). The reagent was dissolved in phosphate-buffered saline at 5 mg/mL and filtered to sterilize and remove the small amount of insoluble residue present in some batches of MTT. […] Subsequently, dimethyl sulfoxide (100 µL; Merck, Germany) was added to dissolve the resulting formazan by sonication. The plates were read on a microplate reader (Molecular Devices, CA, USA) using a test wavelength of 550 nm and a reference wavelength of 650 nm. XTT assay for suspension cells was used for MOLT-3 cells.

HIV-1 RT [3] = target: T1, HIV-1 RT (Human immunodeficiency virus type 1 group M subtype B, UniProt P03366); set-up: method as in PMID 31698495; details: 1 µM; previously reported values for 5a–5d; cited from earlier work
T1 construct: The reaction mixture consisted of template/primer complex, 2′-deoxy-nucleotide-5′-triphosphates (dNTPs), and RT enzyme in lysis buffer; purchased Roche Applied Science, Mannheim, Germany

[4] = test system: T47-D (hormone-dependent breast cancer); test: In vitro cytotoxicity (MTT); details: for IC50: Homo sapiens, T47D, 48 h, read-out: IC50 T47-D; for %C percentage cytotoxicity T47-D: at 50 µg/mL, inactive (IC50 ≥ 50 µg/mL)
Description: as §1

[5] = test system: HeLA (cervical carcinoma); test: In vitro cytotoxicity (MTT); details: for IC50: Homo sapiens, HeLa, 48 h, read-out: IC50 HeLA; for %C percentage cytotoxicity HeLA: at 50 µg/mL, inactive (IC50 ≥ 50 µg/mL)
Description: as §1

S102 (Thai liver cancer) = test: In vitro cytotoxicity (MTT); details: at 50 µg/mL; inactive (IC50 ≥ 50 µg/mL)
Description: as §1

[6] = test system: MDA-MB-231 (hormone-independent breast cancer); test: In vitro cytotoxicity (MTT); details: for IC50: Homo sapiens, MDA-MB-231, 48 h, read-out: IC50 MDA-MB-231; for %C percentage cytotoxicity MDA-MB-231: at 50 µg/mL, inactive (IC50 ≥ 50 µg/mL)
Description: as §1

[7] = test system: HuCCA-1 (cholangiocarcinoma); test: In vitro cytotoxicity (MTT); details: for IC50: Homo sapiens, HuCC-A1, 48 h, read-out: IC50 HuCCA-1; for %C percentage cytotoxicity HuCCA-1: at 50 µg/mL, inactive (IC50 ≥ 50 µg/mL)
Description: as §1

A549 (lung carcinoma) = test: In vitro cytotoxicity (MTT); details: for IC50: Homo sapiens, A549, 48 h, read-out: IC50 A549; for %C percentage cytotoxicity A549: at 50 µg/mL, inactive (IC50 ≥ 50 µg/mL)
Description: as §1

HL-60 (promyeloblast) = test: In vitro cytotoxicity (MTT); details: for IC50: Homo sapiens, HL-60, 48 h, read-out: IC50 HL-60; for %C percentage cytotoxicity HL-60: at 50 µg/mL, inactive (IC50 ≥ 50 µg/mL)
Description: as §1

HepG2 (hepatocarcinoma) = test: In vitro cytotoxicity (MTT); details: for IC50: Homo sapiens, HepG2, 48 h, read-out: IC50 HepG2; for %C percentage cytotoxicity HepG2: at 50 µg/mL, inactive (IC50 ≥ 50 µg/mL)
Description: as §1

[8] = test system: MOLT-3 (acute lymphoblastic leukemia); test: In vitro cytotoxicity (XTT); details: for IC50: Homo sapiens, MOLT-3, 48 h, read-out: IC50 MOLT-3; for %C percentage cytotoxicity MOLT-3: at 50 µg/mL, inactive (IC50 ≥ 50 µg/mL)
Description: as §1

HIV-1 RT [9] = target: T1, HIV-1 RT; test: HIV-1 RT inhibition assay (Roche RT kit, colorimetric ELISA); type: biochemical; details: read-out: Inhibitory activities (%) against HIV-1 RT
From the text: The inhibition assay of HIV-1 RT was accomplished using the template/primer hybrid poly(A) × oligo(dT)15, digoxigenin (DIG)- and biotin-labeled nucleotides, an antibody to DIG that was conjugated to peroxidase (anti-DIG-POD), and the peroxidase substrate ABTS. The quantities of DIG- and biotin-labeled dUTP incorporated into DNA represent t HIV-1 RT activity. The HIV-RT inhibition assay was implemented using an RT assay kit (Roche Applied Science, Mannheim, Germany), and the procedures for assaying RT inhibition were performed as described in the kit protocol. […] The reaction mixture consisted of template/primer complex, 2′-deoxy-nucleotide-5′-triphosphates (dNTPs), and RT enzyme in lysis buffer with or without an inhibitor. […] The biotin-labeled dNTPs that were incorporated in the template bound to streptavidin because of the presence of RT. Unbound dNTPs were washed using a wash buffer, and anti-DIG-POD was added to the MTP. The DIG-labeled dNTPs incorporated in the template bound to the anti-DIG-POD antibody. Unbound anti-DIG-POD was also washed elaborately five times using a wash buffer. Finally, the peroxide substrate (ABST) was added to the MTP. A colored reaction product emerged during the cleavage of the substrate catalyzed by […]. The absorbance of the sample was measured at the optical density (OD) at 490 nm using the MTP (enzyme-linked immunosorbent assay [ELISA]) reader. The percentage inhibitory activities of the RT inhibitors were calculated by comparing with that of the sample without an inhibitor. The resulting color intensity was directly proportional to the RT activity. Percentage inhibitory values were calculated using the following formula: Inhibition (%) = [1–(OD value with RT and inhibitor−OD value without RT and inhibitors)/(OD value without inhibitors with RT−OD value without RT and inhibitors)] × 100.

SMILES | %C percentage cytotoxicity H69AR [1] | IC50 [5] [µM] | %C percentage cytotoxicity S102 (S102 (Thai liver cancer)) | IC50 [6] [µM] | IC50 [7] [µM] | IC50 (A549 (lung carcinoma)) [µM] | IC50 (HL-60 (promyeloblast)) [µM] | IC50 (HepG2 (hepatocarcinoma)) [µM] | melting point [°C] | IC50 [8] [µM] | %C percentage cytotoxicity MRC-5 [2] | %C percentage cytotoxicity T47-D [4] | %C percentage cytotoxicity HeLA [5] | %C percentage cytotoxicity MDA-MB-231 [6] | %C percentage cytotoxicity HuCCA-1 [7] | %C percentage cytotoxicity A549 (A549 (lung carcinoma)) | %C percentage cytotoxicity HL-60 (HL-60 (promyeloblast)) | %C percentage cytotoxicity HepG2 (HepG2 (hepatocarcinoma)) | %C percentage cytotoxicity MOLT-3 [8] | inhibition at 1 µM (HIV-1 RT [9]) [%] | also measured
N#Cc1ccc(Nc2cc(Oc3ccc(C=O)cc3)c3ccccc3n2)cc1 [Compound 5a, 4-(4′-formylphenoxy)-2-(4″-cyanophenyl)-aminoquinoline] | %C = 38.0 ^c | 12.6 ± 1.3 | %C = 20.9 ^c | 77.7 ± 5.9 | 29.7 ± 2 | 122 ± 4.5 | 16.6 ± 4.7 | 73.2 ± 7.7 | 267.1 to 268 | 15.6 ± 3.6 |  |  |  |  |  |  |  |  |  |  | IC50 [2]: 108 ± 4.7 µM; Inhibitory activities (%) against HIV-1 RT (HIV-1 RT [3]): 19.4 ± 1.7%; IC50 [4]: 43 ± 5.3 µM
N#Cc1ccc(Nc2cc(Oc3ccc(C#N)cc3)c3ccccc3n2)cc1 [Compound 5c, 4-(4′-cyanophenoxy)-2-(4″-cyanophenyl)-aminoquinoline] | %C = 26.0 ^c |  | %C = 0.0 ^c |  |  |  |  |  |  |  | %C = 12.0 ^c | %C = 45.0 ^c | %C = 25.0 ^c | %C = 38.4 ^c | %C = 23.0 ^c | %C = 26.0 ^c | %C = 2.0 ^c | %C = 44.8 ^c | %C = 6.0 ^c |  | Inhibitory activities (%) against HIV-1 RT (HIV-1 RT [3]): 39.7 ± 3.0%
O=Cc1ccc(Oc2cc(-c3cc(Oc4ccc(C=O)cc4)c4ccccc4n3)nc3ccccc23)cc1 [Compound 7a, 4,4′-di-(4′-formylphenoxy)-2,2′-biquinoline] | %C = 20.0 ^c | 88 ± 4.3 | %C = 17.6 ^c | 74.1 ± 5.3 | 88.2 ± 4.4 | 69.5 ± 3.3 |  | 69.8 ± 11.8 | 288.7 to 289.3 | 74.2 ± 6.3 | %C = 33.9 ^c |  |  |  |  |  | %C = 25.0 ^c |  |  | 22.9 ± 1.2 | IC50 [4]: 96.1 ± 3.3 µM
N#Cc1ccc(Nc2cc(Oc3ccc(C=O)cc3)nc3ccccc23)cc1 [Compound 8a, 2-(4′-formylphenoxy)-4-(4″-cyanophenyl)-aminoquinoline] | %C = 8.4 ^c | 112 ± 3.1 | %C = 2.9 ^c | 118 ± 5.8 | 22.7 ± 1.9 | 111 ± 5.6 | 107 ± 1.4 | 85.3 ± 3.5 | 238.5 to 238.9 | 21.5 ± 3.3 |  | %C = 0.0 ^c |  |  |  |  |  |  |  | 29.6 ± 2.7 | IC50 [2]: 119 ± 5.7 µM
Cc1cc(C=O)cc(C)c1Oc1cc(Nc2ccc(C#N)cc2)c2ccccc2n1 [Compound 8b, 2-(2′,6′-Dimethyl-4′-formylphenoxy)-4-(4″-cyanophenyl)-aminoquinoline] | %C = 6.0 ^c | 42.3 ± 2.7 | %C = 0.0 ^c | 107 ± 3.2 |  |  | 34.9 ± 5.1 | 106 ± 9.7 | 200 to 201.3 | 22.3 ± 1.9 | %C = 9.7 ^c | %C = 38.0 ^c |  |  | %C = 43.0 ^c | %C = 37.0 ^c |  |  |  | 39.6 ± 1.5 | 
N#Cc1ccc(Nc2cc(Oc3ccc(C#N)cc3)nc3ccccc23)cc1 [Compound 8c, 2-(4′-cyanophenoxy)-4-(4″-cyanophenyl)-aminoquinoline] | %C = 21.0 ^c |  | %C = 0.0 ^c |  |  |  |  |  | 187.5 to 188 |  | %C = 17.2 ^c | %C = 35.0 ^c | %C = 0.0 ^c | %C = 0.0 ^c | %C = 25.8 ^c | %C = 29.0 ^c | %C = 1.0 ^c | %C = 40.3 ^c | %C = 2.1 ^c | 28.1 ± 3 | 
Cc1cc(C#N)cc(C)c1Oc1cc(Nc2ccc(C#N)cc2)c2ccccc2n1 [Compound 8d, 2-(2′,6′-Dimethyl-4′-cyanophenoxy)-4-(4″-cyanophenyl)-aminoquinoline] | %C = 0.0 ^c | 104 ± 4.7 | %C = 0.0 ^c |  |  |  | 56.6 ± 4.7 |  | 201.3 to 202 | 67.4 ± 3.1 | %C = 15.5 ^c | %C = 31.0 ^c |  | %C = 32.4 ^c | %C = 18.4 ^c | %C = 29.1 ^c |  | %C = 32.0 ^c |  | 34.5 ± 2.3 | 
Cc1cc(C=CC#N)cc(C)c1Oc1cc(Nc2ccc(C#N)cc2)c2ccccc2n1 [Compound 11b, 2-(4′-(2″-(E, Z)-cyanovinyl)-2′,6′-dimethyl-phenoxy)-4-(4″-cyanophenyl)-aminoquinoline] | %C = 3.0 ^c |  | %C = 0.0 ^c |  |  |  |  |  | 180.7 to 182.3 |  | %C = 0.0 ^c | %C = 4.0 ^c | %C = 2.0 ^c | %C = 14.1 ^c | %C = 0.0 ^c | %C = 0.0 ^c | %C = 0.0 ^c | %C = 3.7 ^c | %C = 19.0 ^c | 34.3 ± 2.6 | 
